Source: article doi:10.1101/2023.04.18.537371v1 (bioRxiv, 2023)
Peptide text beside a SMILES is read from it.

Experiments:
[1] = Single-dose pharmacokinetics in SD rats; format: in vivo, SD rat
[2] = Single-dose pharmacokinetics in beagle dogs; format: in vivo, beagle dog; conditions: for AUC0-last: n=3, mean
[3] = Tissue distribution in SD rats after single subcutaneous injection; format: in vivo, SD rat
[4] = In vitro protein binding, rapid equilibrium dialysis; format: in vitro ADME; conditions: human, plasma
[5] = In vitro blood to plasma partitioning; format: in vitro ADME, dog
Plasma stability [6] = format: in vitro ADME, CD-1 mouse
Plasma stability [7] = format: in vitro ADME, beagle dog
SD rat hepatocytes = experiment: Hepatocyte stability; format: in vitro ADME; conditions: 1.00 μM
mouse hepatocytes = experiment: Metabolite identification in hepatocytes; format: in vitro ADME; conditions: cryopreserved mouse hepatocytes, FC-12738 10 μM, 37 °C, 240 min, LC-UV-MS
[8] = Metabolism of FC-12738 in SD rat urine, feces and bile; format: in vivo; conditions: SC 10 mg/kg FC-12738 single
CYP3A = experiment: CYP450 inhibition assay; format: in vitro ADME; conditions: human, pooled human liver microsomes
CYP2C9 = CYP2C9 (Homo sapiens, UniProt P11712); experiment: CYP time-dependent inhibition assay; format: in vitro ADME
CYP1A2 = format: in vitro ADME; conditions: cryopreserved human hepatocytes, three donors, 0.100 to 15.0 μM, 48 h, 37°C
P-gp = P-gp (Homo sapiens, UniProt P08183); experiment: Inhibition of P-gp in Caco-2 cells; format: in vitro ADME
OAT1 = OAT1 (Homo sapiens, UniProt Q4U2R8); experiment: Transporter inhibition in HEK293 cells; format: in vitro ADME
[9] = male, SD, rat, plasma, iv, 2 mg/kg
[10] = male, SD, rat, plasma, sc, 10 mg/kg
[11] = male, beagle, dog, plasma, iv, 1 mg/kg
[12] = male, beagle, dog, plasma, sc, 5 mg/kg
[13] = kidney, male SD rats, SC 10 mg/kg single
[14] = large intestine, male SD rats, SC 10 mg/kg single
[15] = liver, male SD rats, SC 10 mg/kg single
[16] = lung, male SD rats, SC 10 mg/kg single
[17] = male, SD, rat, fat, sc, 10 mg/kg
[18] = male, SD, rat, heart, sc, 10 mg/kg
[19] = male, SD, rat, kidney, sc, 10 mg/kg
[20] = male, SD, rat, large intestine, sc, 10 mg/kg
[21] = male, SD, rat, liver, sc, 10 mg/kg
[22] = male, SD, rat, lung, sc, 10 mg/kg
[23] = male, SD, rat, muscle, sc, 10 mg/kg
[24] = male, SD, rat, small intestine, sc, 10 mg/kg
[25] = male, SD, rat, spleen, sc, 10 mg/kg
[26] = male, SD, rat, stomach, sc, 10 mg/kg
[27] = muscle, male SD rats, SC 10 mg/kg single
[28] = small intestine, male SD rats, SC 10 mg/kg single
[29] = spleen, male SD rats, SC 10 mg/kg single
[30] = stomach, male SD rats, SC 10 mg/kg single

Sequence of CYP2C9 (P11712 whole entry): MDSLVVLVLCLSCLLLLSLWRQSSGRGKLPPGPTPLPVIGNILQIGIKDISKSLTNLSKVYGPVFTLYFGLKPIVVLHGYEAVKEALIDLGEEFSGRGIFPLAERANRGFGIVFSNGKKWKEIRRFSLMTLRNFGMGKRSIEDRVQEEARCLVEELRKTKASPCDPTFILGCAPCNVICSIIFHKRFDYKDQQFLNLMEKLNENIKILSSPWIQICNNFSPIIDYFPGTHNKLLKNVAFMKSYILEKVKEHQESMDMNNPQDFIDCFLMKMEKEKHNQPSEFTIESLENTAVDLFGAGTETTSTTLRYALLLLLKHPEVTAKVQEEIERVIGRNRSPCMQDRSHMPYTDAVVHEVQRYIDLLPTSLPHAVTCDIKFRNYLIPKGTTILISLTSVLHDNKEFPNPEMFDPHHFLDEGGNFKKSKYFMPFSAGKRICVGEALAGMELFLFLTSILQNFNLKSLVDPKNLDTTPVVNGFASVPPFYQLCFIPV
Sequence of OAT1 (Q4U2R8 whole entry): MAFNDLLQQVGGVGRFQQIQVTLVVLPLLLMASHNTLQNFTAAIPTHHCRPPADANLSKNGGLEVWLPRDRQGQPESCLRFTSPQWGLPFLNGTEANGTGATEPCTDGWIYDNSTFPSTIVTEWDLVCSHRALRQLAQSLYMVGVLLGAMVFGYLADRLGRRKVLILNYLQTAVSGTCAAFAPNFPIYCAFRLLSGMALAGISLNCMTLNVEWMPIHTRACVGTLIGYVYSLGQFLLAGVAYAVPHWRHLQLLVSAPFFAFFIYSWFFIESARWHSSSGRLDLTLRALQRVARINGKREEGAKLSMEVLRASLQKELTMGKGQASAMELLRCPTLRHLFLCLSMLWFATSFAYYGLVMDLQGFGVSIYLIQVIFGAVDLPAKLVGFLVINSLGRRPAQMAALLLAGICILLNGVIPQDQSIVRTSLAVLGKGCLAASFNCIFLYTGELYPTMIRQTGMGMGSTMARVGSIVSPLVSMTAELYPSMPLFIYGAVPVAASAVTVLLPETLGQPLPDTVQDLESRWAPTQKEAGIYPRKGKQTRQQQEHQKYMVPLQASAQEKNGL
Sequence of P-gp (P08183 whole entry): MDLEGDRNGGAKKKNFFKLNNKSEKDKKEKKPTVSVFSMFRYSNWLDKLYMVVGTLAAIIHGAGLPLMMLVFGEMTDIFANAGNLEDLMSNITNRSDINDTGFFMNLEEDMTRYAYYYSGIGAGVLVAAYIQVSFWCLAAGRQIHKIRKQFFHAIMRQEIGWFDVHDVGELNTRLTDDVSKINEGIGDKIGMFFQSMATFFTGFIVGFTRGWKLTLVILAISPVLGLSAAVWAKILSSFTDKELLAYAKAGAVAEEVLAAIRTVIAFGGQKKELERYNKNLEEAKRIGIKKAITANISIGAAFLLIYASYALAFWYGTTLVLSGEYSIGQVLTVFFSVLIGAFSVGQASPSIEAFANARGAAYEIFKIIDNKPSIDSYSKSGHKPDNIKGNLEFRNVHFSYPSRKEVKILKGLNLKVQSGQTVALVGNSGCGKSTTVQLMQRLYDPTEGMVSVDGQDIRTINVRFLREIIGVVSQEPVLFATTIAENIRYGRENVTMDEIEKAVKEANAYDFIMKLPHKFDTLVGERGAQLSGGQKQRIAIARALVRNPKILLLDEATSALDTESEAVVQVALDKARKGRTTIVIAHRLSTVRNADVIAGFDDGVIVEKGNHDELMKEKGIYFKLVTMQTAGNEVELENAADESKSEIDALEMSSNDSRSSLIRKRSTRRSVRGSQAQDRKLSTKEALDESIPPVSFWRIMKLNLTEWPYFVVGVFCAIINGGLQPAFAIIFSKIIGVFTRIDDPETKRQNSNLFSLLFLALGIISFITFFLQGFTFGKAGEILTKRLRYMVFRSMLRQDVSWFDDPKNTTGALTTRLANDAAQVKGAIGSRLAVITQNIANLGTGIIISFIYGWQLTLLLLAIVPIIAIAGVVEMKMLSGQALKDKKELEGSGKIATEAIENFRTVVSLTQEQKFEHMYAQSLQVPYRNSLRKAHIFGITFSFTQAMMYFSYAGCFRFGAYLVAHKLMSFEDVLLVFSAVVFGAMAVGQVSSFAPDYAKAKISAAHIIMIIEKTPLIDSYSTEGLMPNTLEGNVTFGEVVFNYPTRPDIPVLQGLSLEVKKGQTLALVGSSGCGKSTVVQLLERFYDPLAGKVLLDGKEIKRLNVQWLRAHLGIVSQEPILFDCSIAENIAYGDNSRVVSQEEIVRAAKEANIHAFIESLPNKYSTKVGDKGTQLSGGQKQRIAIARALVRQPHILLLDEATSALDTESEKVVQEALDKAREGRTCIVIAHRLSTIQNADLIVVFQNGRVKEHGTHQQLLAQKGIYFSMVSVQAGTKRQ

For `CC(C)[C@@H](NC(=O)[C@H](N)Cc1ccc(O)cc1)C(=O)N[C@H](CC(=O)O)C(=O)N[C@H](CCCCN)C(=O)N[C@H](CCCNC(=N)N)C(=O)O` [FC-12738, (D-Tyr)-(D-Val)-(D-Asp)-(D-Lys)-(D-Arg)] (HELM PEPTIDE1{[dY].[dV].[dD].[dK].[dR]}$$$$V2.0), the “Tolerability / adverse effects in-life” value ([1]; male SD rats, IV 2 mg/kg or SC 10 mg/kg single) was “No adverse effect was observed”, the AUC(0-inf) [1, 9] was 2830 ng·h/mL and the AUC(0-t) [1, 9] was 2800 ng·h/mL. For the same compound, the C0 [1, 9] was 7830 ng/mL, the Vd [1, 9] was 0.309 L/kg and the clearance [1, 9] was 11.8 mL/min/kg. The half-life [1, 9] was 19.1 min, the AUC(0-inf) [1, 10] was 13000 ng·h/mL and the AUC(0-t) [1, 10] was 13000 ng·h/mL. It also gave a Cmax [1, 10] of 8430 ng/mL, a Tmax [1, 10] of 25 min and a bioavailability [1, 10] of 91.9%. For the same compound, the half-life [1, 10] was 40.8 min, the “Tolerability / adverse effects in-life” value ([2]; male beagle dogs, IV 1 mg/kg or SC 5 mg/kg single) was “No adverse effect was observed” and the AUC0-last ([2]; male beagle dogs, IV 1 mg/kg single) was 2850 ± 439 ng·h/mL. The AUC0-last ([2]; male beagle dogs, SC 5 mg/kg single) was 16100 ± 2510 ng·h/mL, the bioavailability ([2]; male beagle dogs, SC 5 mg/kg, calculated with mean AUC0-last and nominal dose) was 112% and the AUC(0-inf) [2, 11] was 2900 ng·h/mL. For the same compound, the C0 [2, 11] was 4820 ng/mL, the Vd [2, 11] was 0.302 L/kg and the clearance [2, 11] was 5.85 mL/min/kg. It also gave an AUC(0-inf) [2, 12] of 16200 ng·h/mL, a Cmax [2, 12] of 7300 ng/mL and a Tmax [2, 12] of 50 min. It also gave a half-life [2, 12] of 53 min, an AUC0-last [3, 13] of 135000 ng·h/g and a Cmax [3, 13] of 28500 ng/g. For the same compound, the Tmax [3, 13] was 30 min, the AUC0-last [3, 14] was 4040 ng·h/g and the Cmax [3, 14] was 2150 ng/g. For the same compound, the Tmax [3, 14] was 30 min, the AUC0-last [3, 15] was 4190 ng·h/g and the Cmax [3, 15] was 1270 ng/g. For the same compound, the Tmax [3, 15] was 30 min, the AUC0-last [3, 16] was 6840 ng·h/g and the Cmax [3, 16] was 5330 ng/g. For the same compound, the Tmax [3, 16] was 30 min, the “Tolerability / adverse effects in-life” value ([3]; male SD rats, SC 10 mg/kg single, tissue distribution study) was “No adverse effect was observed” and the tissue level at time at 0.5 h ([3]; male, SD, rat, brain, sc, 10 mg/kg) was 128 ng/g. It also gave a tissue level at time at 0.5 h [3, 17] of 1070 ng/g, a tissue level at time at 2 h [3, 17] of 103 ng/g and a tissue level at time at 0.5 h [3, 18] of 2150 ng/g. It also gave a tissue level at time at 2 h [3, 18] of 365 ng/g, a tissue level at time at 0.5 h [3, 19] of 28500 ng/g and a tissue level at time at 2 h [3, 19] of 17300 ng/g. The tissue level at time at 8 h [3, 19] was 14300 ng/g, the tissue level at time at 0.5 h [3, 20] was 2150 ng/g and the tissue level at time at 2 h [3, 20] was 430 ng/g. For the same compound, the tissue level at time at 8 h [3, 20] was 226 ng/g, the tissue level at time at 0.5 h [3, 21] was 1270 ng/g and the tissue level at time at 2 h [3, 21] was 616 ng/g. For the same compound, the tissue level at time at 8 h [3, 21] was 269 ng/g, the tissue level at time at 0.5 h [3, 22] was 5330 ng/g and the tissue level at time at 2 h [3, 22] was 752 ng/g. It also gave a tissue level at time at 8 h [3, 22] of 109 ng/g, a tissue level at time at 0.5 h [3, 23] of 1490 ng/g and a tissue level at time at 2 h [3, 23] of 191 ng/g. For the same compound, the tissue level at time at 8 h [3, 23] was 46.4 ng/g, the AUC(0-t) [3, 10] was 14400 ng·h/mL and the Cmax [3, 10] was 14200 ng/mL. It also gave a Tmax [3, 10] of 30 min, a level at 0.5 h [3, 10] of 14200 ng/mL and a level at 2 h [3, 10] of 1790 ng/mL. The level at 8 h [3, 10] was 5.04 ng/mL, the tissue level at time at 0.5 h [3, 24] was 2060 ng/g and the tissue level at time at 2 h [3, 24] was 775 ng/g. It also gave a tissue level at time at 8 h [3, 24] of 188 ng/g, a tissue level at time at 0.5 h [3, 25] of 1490 ng/g and a tissue level at time at 2 h [3, 25] of 345 ng/g. For the same compound, the tissue level at time at 8 h [3, 25] was 239 ng/g, the tissue level at time at 0.5 h [3, 26] was 3370 ng/g and the tissue level at time at 2 h [3, 26] was 555 ng/g. For the same compound, the tissue level at time at 8 h [3, 26] was 96.7 ng/g, the AUC0-last [3, 27] was 1930 ng·h/g and the Cmax [3, 27] was 1490 ng/g. For the same compound, the Tmax [3, 27] was 30 min, the AUC0-last [3, 28] was 4970 ng·h/g and the Cmax [3, 28] was 2060 ng/g. For the same compound, the Tmax [3, 28] was 30 min, the AUC0-last [3, 29] was 3280 ng·h/g and the Cmax [3, 29] was 1490 ng/g. For the same compound, the Tmax [3, 29] was 30 min, the AUC0-last [3, 30] was 4760 ng·h/g and the Cmax [3, 30] was 3370 ng/g. The Tmax [3, 30] was 30 min, the fraction unbound at 6 h, 0.2 µM [4] was 0.428 and the fraction unbound at 6 h, 2 µM [4] was 0.47. For the same compound, the fraction unbound at 6 h, 10 µM [4] was 0.673, the “Mean erythrocyte to plasma ratio KE/P” value ([5]; dog whole blood, 0.200 μM, 37°C, 60 min) was < 0.18 and the “Mean erythrocyte to plasma ratio KE/P” value ([5]; dog whole blood, 2.00 μM, 37°C, 60 min) was 0.07. For the same compound, the “Mean erythrocyte to plasma ratio KE/P” value ([5]; dog whole blood, 10.0 μM, 37°C, 60 min) was < 0.14, the “Mean blood-to-plasma ratio KB/P” value ([5]; dog whole blood, 10.0 μM, 37°C, 60 min, LC-MS/MS) was 0.58 and the tissue to tissue ratio at 1 h, 0.2 µM ([5]; dog, whole blood) was 0.57. For the same compound, the tissue to tissue ratio at 1 h, 2 µM ([5]; dog, whole blood) was 0.55, the remaining at 10 min, 2 μM (Plasma stability [6]; CD-1, mouse, plasma) was 104% and the remaining at 0.5 h, 2 μM (Plasma stability [6]; CD-1, mouse, plasma) was 100%. The remaining at 1 h, 2 μM (Plasma stability [6]; CD-1, mouse, plasma) was 111%, the remaining at 2 h, 2 μM (Plasma stability [6]; CD-1, mouse, plasma) was 100% and the half-life (Plasma stability [6]; CD-1 mouse plasma, 2.00 μM, 37.0 °C, up to 120 min) was > 372.7 min. For the same compound, the half-life (Plasma stability [7]; beagle dog plasma, 2.00 μM, 37.0 °C, up to 120 min) was > 372.7 min, the remaining at 10 min, 2 μM (Plasma stability [7]; beagle, dog, plasma) was 106% and the remaining at 0.5 h, 2 μM (Plasma stability [7]; beagle, dog, plasma) was 105%. For the same compound, the remaining at 1 h, 2 μM (Plasma stability [7]; beagle, dog, plasma) was 106%, the remaining at 2 h, 2 μM (Plasma stability [7]; beagle, dog, plasma) was 101% and the “intrinsic clearance CLint(hep)” value (SD rat hepatocytes; cryopreserved SD rat hepatocytes, 37.0°C, 120 min) was < 1.9 μL/min/10^6 cells. The half-life (SD rat hepatocytes; cryopreserved SD rat hepatocytes, 37.0°C, 120 min, LC-MS/MS) was > 372.7 min, the “hepatic clearance CLint(liver)” value (SD rat hepatocytes; scaled from SD rat hepatocytes) was < 8.7 mL/min/kg and the “Relative Abundance (UV%)” value (mouse hepatocytes) was 88.92%. For the same compound, the “Relative MS abundance (%Total)” value ([8]; male SD rat bile) was 100.00%, the “Relative MS abundance (%Total)” value ([8]; male SD rat feces) was 100.00% and the “Relative MS abundance (%Total)” value ([8]; male SD rat urine) was 99.93%. The IC50 (CYP3A) was > 100 µM, the IC50 (CYP2C9) was > 100 µM and the “Time-dependent inhibition of CYP2C9” value (CYP2C9; cutoff IC50 shift >= 1.5-fold, 30 min pre-incubation ± NADPH) was “no time-dependent inhibition”. For the same compound, the “Induction of CYP1A2 (enzyme activity and gene expression)” value (CYP1A2) was “not considered as an inducer”, the IC50 (P-gp) was > 100 µM and the IC50 (OAT1) was > 100 µM.
